# Experimental data from ChEMBL document CHEMBL5518210 (J Med Chem, 2024).
# Experiments:
# Keap1/Nrf2 = Keap1/Nrf2 (Homo sapiens, UniProt Q14145); assay: Inhibition of His-tagged human Keap1 Kelch domain /FITC-labelled-9mer Nrf2 (unknown origin) protein-protein interaction incubated for 1 hr by fluorescence polarization assay
# [1] = Metabolic stability in human liver microsomes assessed as compound remaining at 5 uM measured upto 60 mins
# [2] = Apparent permeability in human Caco-2 cells incubated for 2 hrs by LC/MS analysis
# Cytochrome P450 2D6 = Cytochrome P450 2D6 (Homo sapiens, UniProt P10635); assay: Inhibition of CYP2D6 in human liver microsomes; format: ADME, Microsome
# [3] = target: Voltage-gated inwardly rectifying potassium channel KCNH2 (Homo sapiens, UniProt Q12809); assay: Inhibition of human ERG by patch clamp assay; format: toxicity
# Cytochrome P450 1A2 = target: T1, Cytochrome P450 1A2 (Homo sapiens, UniProt P05177); assay: Inhibition of CYP1A2 in human liver microsomes; format: ADME, Microsome
# T1 sequence (P05177 whole entry): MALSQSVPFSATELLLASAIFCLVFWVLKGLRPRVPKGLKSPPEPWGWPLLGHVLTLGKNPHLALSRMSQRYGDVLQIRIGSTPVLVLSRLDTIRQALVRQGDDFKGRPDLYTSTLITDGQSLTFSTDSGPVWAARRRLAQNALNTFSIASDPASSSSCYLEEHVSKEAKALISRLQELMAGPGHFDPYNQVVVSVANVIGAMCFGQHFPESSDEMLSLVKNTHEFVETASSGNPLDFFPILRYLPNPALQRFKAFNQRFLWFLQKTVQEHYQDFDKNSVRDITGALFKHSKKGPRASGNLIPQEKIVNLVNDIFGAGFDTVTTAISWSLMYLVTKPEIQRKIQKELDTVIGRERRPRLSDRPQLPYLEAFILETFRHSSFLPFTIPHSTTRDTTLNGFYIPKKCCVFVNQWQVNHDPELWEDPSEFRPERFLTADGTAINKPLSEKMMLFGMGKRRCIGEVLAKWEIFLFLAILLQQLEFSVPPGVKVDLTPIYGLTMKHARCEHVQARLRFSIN
# Cytochrome P450 2C9 = Cytochrome P450 2C9 (Homo sapiens, UniProt P11712); assay: Inhibition of CYP2C9 in human liver microsomes; format: ADME, Microsome
# Cytochrome P450 2C8 = target: T2, Cytochrome P450 2C8 (Homo sapiens, UniProt P10632); assay: Inhibition of CYP2C8 in human liver microsomes; format: ADME, Microsome
# T2 sequence (P10632 whole entry): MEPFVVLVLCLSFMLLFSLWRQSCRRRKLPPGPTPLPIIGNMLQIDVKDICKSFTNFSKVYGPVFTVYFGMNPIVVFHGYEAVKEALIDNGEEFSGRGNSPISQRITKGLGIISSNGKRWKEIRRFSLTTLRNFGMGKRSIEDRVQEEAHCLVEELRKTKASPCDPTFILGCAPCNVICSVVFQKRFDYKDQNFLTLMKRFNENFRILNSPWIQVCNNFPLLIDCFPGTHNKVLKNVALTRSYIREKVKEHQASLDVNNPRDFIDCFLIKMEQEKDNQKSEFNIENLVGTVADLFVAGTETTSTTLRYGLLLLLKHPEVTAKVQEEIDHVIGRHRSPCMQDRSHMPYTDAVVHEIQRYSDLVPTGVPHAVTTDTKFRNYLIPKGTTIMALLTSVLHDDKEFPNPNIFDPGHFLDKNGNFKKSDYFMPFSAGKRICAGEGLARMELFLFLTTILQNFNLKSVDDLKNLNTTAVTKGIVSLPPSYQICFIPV
# Cytochrome P450 2C19 = Cytochrome P450 2C19 (Homo sapiens, UniProt P33261); assay: Inhibition of CYP2C19 in human liver microsomes; format: ADME, Microsome
# Cytochrome P450 3A4 = Cytochrome P450 3A4 (Homo sapiens, UniProt P08684); assay: Inhibition of CYP3A4 in human liver microsomes; format: ADME, Microsome
# in vivo = settings: C57BL/6, mouse, po, 10 mg/kg
# Description: Oral bioavailability in C57BL/6 mouse at 10 mg/kg
# [4] = target: Kelch-like ECH-associated protein 1 (Homo sapiens, UniProt Q14145); assay: Binding affinity to biotinylated Keap1 Kelch domain (unknown origin) by SPR method
# Sequence of Kelch-like ECH-associated protein 1 (Q14145 whole entry, the tested form may be a part): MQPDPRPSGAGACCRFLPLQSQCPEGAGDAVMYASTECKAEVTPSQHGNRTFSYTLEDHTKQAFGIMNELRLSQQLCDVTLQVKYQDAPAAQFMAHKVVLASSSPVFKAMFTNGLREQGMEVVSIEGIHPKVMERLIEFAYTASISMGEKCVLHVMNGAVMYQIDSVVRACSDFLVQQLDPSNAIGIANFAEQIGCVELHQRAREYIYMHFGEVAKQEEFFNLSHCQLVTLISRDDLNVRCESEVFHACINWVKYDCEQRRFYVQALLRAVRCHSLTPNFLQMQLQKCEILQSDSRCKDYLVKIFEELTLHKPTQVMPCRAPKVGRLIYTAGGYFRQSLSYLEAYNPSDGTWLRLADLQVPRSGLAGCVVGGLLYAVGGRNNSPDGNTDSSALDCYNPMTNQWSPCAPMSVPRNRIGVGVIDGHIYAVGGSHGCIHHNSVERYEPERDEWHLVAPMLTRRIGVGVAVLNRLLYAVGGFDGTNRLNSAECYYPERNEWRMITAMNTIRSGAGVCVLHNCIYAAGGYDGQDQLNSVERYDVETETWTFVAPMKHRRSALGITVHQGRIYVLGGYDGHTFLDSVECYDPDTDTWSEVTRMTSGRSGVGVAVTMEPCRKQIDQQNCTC
# Sequence of Cytochrome P450 2C9 (P11712 whole entry): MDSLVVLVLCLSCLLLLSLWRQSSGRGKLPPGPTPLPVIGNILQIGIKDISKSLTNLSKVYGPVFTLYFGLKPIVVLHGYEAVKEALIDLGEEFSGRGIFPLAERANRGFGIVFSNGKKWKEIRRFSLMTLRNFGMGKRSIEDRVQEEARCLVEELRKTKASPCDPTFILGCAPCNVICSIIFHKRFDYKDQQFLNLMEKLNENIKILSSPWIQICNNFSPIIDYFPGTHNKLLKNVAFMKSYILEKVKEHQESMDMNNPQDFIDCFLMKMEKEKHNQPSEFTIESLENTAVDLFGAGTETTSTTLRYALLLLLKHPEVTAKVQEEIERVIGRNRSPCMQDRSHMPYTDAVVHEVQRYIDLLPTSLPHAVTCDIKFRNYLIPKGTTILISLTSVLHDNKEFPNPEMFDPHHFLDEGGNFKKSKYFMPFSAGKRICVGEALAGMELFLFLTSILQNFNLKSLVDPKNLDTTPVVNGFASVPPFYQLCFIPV
# Sequence of Cytochrome P450 2C19 (P33261 whole entry): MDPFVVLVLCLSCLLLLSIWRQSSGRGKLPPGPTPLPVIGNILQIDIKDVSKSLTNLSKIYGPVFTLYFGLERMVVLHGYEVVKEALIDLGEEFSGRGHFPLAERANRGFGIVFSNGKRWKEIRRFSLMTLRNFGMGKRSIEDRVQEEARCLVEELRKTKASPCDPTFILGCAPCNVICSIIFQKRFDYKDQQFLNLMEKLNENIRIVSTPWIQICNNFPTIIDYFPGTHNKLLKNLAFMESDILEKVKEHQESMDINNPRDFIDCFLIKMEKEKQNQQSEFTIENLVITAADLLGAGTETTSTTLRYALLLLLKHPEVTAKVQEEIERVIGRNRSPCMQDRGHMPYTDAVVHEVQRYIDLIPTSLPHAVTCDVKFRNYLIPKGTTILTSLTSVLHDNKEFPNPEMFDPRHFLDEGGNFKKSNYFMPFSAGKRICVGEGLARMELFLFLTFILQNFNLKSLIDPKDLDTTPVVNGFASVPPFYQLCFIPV
# Sequence of Cytochrome P450 2D6 (P10635 whole entry): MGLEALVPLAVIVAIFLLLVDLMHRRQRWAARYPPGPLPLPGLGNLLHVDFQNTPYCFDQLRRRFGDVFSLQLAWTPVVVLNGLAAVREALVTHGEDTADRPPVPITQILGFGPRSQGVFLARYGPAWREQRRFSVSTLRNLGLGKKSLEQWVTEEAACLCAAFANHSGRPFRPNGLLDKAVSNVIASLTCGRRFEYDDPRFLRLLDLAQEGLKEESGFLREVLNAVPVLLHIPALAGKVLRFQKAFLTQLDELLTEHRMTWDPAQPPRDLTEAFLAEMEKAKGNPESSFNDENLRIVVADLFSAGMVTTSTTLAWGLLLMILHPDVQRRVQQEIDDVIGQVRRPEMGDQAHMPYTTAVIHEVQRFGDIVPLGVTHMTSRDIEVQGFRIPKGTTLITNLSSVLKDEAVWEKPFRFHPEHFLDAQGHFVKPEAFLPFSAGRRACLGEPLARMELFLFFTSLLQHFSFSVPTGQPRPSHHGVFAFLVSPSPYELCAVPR
# Sequence of Keap1/Nrf2 (Q16236 whole entry, the tested form may be a part): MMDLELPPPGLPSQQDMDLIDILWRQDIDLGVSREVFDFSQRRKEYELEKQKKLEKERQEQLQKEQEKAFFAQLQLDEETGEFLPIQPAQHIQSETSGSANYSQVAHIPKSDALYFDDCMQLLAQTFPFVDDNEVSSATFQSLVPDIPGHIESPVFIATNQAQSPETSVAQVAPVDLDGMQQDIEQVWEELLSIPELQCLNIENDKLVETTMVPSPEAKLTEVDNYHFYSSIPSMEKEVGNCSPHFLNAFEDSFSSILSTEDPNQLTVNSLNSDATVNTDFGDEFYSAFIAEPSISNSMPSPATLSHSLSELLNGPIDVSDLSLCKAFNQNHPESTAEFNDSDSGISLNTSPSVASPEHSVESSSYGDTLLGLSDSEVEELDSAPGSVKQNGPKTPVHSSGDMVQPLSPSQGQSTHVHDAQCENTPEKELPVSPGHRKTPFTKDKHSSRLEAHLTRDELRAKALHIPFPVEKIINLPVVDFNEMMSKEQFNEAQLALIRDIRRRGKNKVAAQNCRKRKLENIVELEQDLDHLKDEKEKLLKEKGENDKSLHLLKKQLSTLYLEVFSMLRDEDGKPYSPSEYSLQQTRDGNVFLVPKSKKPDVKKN
# Sequence of Keap1/Nrf2 (Q14145 whole entry, the tested form may be a part): as the sequence (Q14145 whole entry, the tested form may be a part) above
# Sequence of Voltage-gated inwardly rectifying potassium channel KCNH2 (Q12809 whole entry): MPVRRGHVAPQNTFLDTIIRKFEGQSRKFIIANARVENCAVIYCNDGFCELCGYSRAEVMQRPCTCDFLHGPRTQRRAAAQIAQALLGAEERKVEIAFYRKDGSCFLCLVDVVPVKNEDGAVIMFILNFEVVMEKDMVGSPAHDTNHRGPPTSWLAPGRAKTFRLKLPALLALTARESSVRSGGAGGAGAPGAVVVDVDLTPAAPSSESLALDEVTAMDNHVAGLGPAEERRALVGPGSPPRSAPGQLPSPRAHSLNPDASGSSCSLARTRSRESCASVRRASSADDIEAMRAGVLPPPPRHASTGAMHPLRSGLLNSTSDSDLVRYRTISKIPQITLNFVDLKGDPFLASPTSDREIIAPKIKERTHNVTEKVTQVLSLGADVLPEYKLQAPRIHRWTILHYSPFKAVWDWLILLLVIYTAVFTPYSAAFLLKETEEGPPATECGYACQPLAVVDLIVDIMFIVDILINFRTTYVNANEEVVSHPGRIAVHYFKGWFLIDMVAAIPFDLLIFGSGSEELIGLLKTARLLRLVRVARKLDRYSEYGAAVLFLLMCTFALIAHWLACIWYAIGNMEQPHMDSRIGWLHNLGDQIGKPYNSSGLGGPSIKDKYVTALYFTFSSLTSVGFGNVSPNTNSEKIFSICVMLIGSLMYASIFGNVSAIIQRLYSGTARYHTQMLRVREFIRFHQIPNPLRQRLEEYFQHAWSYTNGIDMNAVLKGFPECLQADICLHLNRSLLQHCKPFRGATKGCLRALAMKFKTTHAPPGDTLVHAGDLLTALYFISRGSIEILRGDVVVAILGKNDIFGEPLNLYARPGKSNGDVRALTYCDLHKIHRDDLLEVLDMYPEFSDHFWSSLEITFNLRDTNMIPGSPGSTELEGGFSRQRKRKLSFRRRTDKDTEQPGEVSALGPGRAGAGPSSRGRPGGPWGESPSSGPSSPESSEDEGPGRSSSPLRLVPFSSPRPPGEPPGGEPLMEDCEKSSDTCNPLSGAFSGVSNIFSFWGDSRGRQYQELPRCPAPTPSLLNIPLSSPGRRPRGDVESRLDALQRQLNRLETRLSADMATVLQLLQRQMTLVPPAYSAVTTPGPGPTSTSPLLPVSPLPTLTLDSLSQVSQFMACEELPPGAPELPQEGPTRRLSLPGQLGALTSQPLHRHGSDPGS
# Sequence of Cytochrome P450 3A4 (P08684 whole entry): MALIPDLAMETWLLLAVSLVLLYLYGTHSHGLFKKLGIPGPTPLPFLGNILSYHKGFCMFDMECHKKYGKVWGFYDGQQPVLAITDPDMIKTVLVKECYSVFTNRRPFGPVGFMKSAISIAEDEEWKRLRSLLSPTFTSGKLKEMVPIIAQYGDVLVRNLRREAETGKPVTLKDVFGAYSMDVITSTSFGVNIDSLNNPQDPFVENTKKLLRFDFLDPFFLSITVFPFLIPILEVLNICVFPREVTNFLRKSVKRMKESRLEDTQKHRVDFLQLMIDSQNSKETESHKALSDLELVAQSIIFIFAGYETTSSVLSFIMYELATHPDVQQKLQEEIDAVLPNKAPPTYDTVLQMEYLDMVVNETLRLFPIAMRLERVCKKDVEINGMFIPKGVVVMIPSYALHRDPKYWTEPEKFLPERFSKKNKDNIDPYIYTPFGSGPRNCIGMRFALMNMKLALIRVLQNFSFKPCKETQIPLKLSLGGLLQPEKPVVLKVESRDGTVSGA
SMILES,IC50 (Keap1/Nrf2),"remaining at 1 h, 5 µM [1]",Papp at 2 h [2],also measured
Cc1ccc(CC(=O)N[C@H](c2ccc(C)c(OCC(C)(C)O)c2)[C@@H](C)C(=O)O)cc1,4.2 µM,100%,0.31 ×10⁻⁶ cm/s,–
Cc1ccc([C@@H](NC(=O)Cc2ccc(Cc3cc(C)ccn3)cc2)[C@@H](C)C(=O)O)cc1.Cl,0.22 µM,92%,5.4 ×10⁻⁶ cm/s,–
COc1cccnc1Cc1ccc(CC(=O)N[C@H](c2ccc(C)cc2)[C@@H](C)C(=O)O)cc1.Cl,0.1 µM,91%,7.1 ×10⁻⁶ cm/s,–
Cc1ccc([C@H](F)C(=O)N[C@H](c2ccc(C)c(OCC3(C#N)CC3)c2)[C@@H](C)C(=O)O)cc1,–,–,–,IC50 (Cytochrome P450 2D6): > 10 µM; IC50 [3]: > 30 µM; IC50 (Cytochrome P450 1A2): > 10 µM; IC50 (Cytochrome P450 2C9): > 10 µM; IC50 (Cytochrome P450 2C8): > 10 µM; IC50 (Cytochrome P450 2C19): > 10 µM; IC50 (Cytochrome P450 3A4): > 10 µM
COc1ccc(S(=O)(=O)Nc2ccc(N(CC(=O)N3CCSC3=O)S(=O)(=O)c3ccc(OC)cc3)c3ccccc23)cc1,–,–,–,bioavailability (in vivo): 68%
Cc1ccc([C@@H](NC(=O)Cc2ccc(Cc3ccccc3)cc2)[C@@H](C)C(=O)O)cc1,2 µM,79%,24 ×10⁻⁶ cm/s,–
Cc1ccc([C@@H](NC(=O)Cc2ccc(Cl)cc2)[C@@H](C)C(=O)O)cc1OCC(C)(C)C#N,0.091 µM,90%,1.2 ×10⁻⁶ cm/s,–
Cc1ccc([C@@H](NC(=O)Cc2ccc(CC3CC3)cc2)[C@@H](C)C(=O)O)cc1,15 µM,93%,15 ×10⁻⁶ cm/s,–
Cc1ccc([C@@H](NC(=O)Cc2ccc(Cc3cccc(C)n3)cc2)[C@@H](C)C(=O)O)cc1.Cl,0.17 µM,94%,2 ×10⁻⁶ cm/s,–
CCOc1cccnc1Cc1ccc(CC(=O)N[C@H](c2ccc(C)cc2)[C@@H](C)C(=O)O)cc1,0.045 µM,84%,8.9 ×10⁻⁶ cm/s,–
Cc1ccc(CC(=O)N[C@H](c2ccc(C)c(OCC(C)(C)F)c2)[C@@H](C)C(=O)O)cc1,0.27 µM,68%,11 ×10⁻⁶ cm/s,–
CCOc1cccnc1Cc1ccc([C@H](F)C(=O)N[C@H](c2ccc(C)cc2)[C@@H](C)C(=O)O)cc1,–,–,–,IC50 (Cytochrome P450 2D6): > 10 µM; IC50 [3]: > 30 µM; IC50 (Cytochrome P450 1A2): > 10 µM; IC50 (Cytochrome P450 2C9): > 10 µM; IC50 (Cytochrome P450 2C8): > 10 µM; IC50 (Cytochrome P450 2C19): > 10 µM; IC50 (Cytochrome P450 3A4): > 10 µM
Cc1ccc(CC(=O)N[C@H](c2ccc(C)c(OCC3CCCCC3)c2)[C@@H](C)C(=O)O)cc1,10 µM,–,17 ×10⁻⁶ cm/s,–
Cc1ccc([C@@H](NC(=O)Cc2ccc(CC3CCCCC3)cc2)[C@@H](C)C(=O)O)cc1,8.4 µM,16%,42 ×10⁻⁶ cm/s,–
Cc1ccc([C@@H](NC(=O)Cc2ccc(Cc3ncccc3C)cc2)[C@@H](C)C(=O)O)cc1.Cl,0.14 µM,93%,11 ×10⁻⁶ cm/s,–
Cc1ccc(CC(=O)N[C@H](c2ccc(C)c(OCC(C)C)c2)[C@@H](C)C(=O)O)cc1,3.6 µM,73%,26 ×10⁻⁶ cm/s,–
Cc1ccc([C@@H](NC(=O)Cc2ccc(Cc3ccc(C)cn3)cc2)[C@@H](C)C(=O)O)cc1.Cl,0.2 µM,97%,5.4 ×10⁻⁶ cm/s,–
Cc1ccc([C@@H](NC(=O)Cc2ccc(Cn3cccn3)cc2)[C@@H](C)C(=O)O)cc1,0.64 µM,95%,1.1 ×10⁻⁶ cm/s,–
Cc1ccc(CC(=O)N[C@H](c2ccc(C)c(OCC3(C#N)CC3)c2)[C@@H](C)C(=O)O)cc1,0.05 µM,83%,0.62 ×10⁻⁶ cm/s,–
Cc1ccc(CC(=O)N[C@H](c2ccc(C)c(OCC3CCCC3)c2)[C@@H](C)C(=O)O)cc1,5 µM,–,21 ×10⁻⁶ cm/s,–
Cc1ccc(CC(=O)N[C@H](c2ccc(C)cc2)[C@@H](C)C(=O)O)cc1,20 µM,97%,8.8 ×10⁻⁶ cm/s,–
Cc1ccc([C@@H](NC(=O)[C@@H](F)c2ccc3c(c2)CCCC3)[C@@H](C)C(=O)O)cc1,0.26 µM,–,33 ×10⁻⁶ cm/s,Kd [4]: 0.13 µM
Cc1ccc([C@@H](NC(=O)Cc2ccc(Cn3ccccc3=O)cc2)[C@@H](C)C(=O)O)cc1,0.92 µM,98%,0.16 ×10⁻⁶ cm/s,–
Cc1ccc(CC(=O)N[C@H](c2ccc(C)c(OCC(C)(C)C#N)c2)[C@@H](C)C(=O)O)cc1,0.078 µM,43%,1.4 ×10⁻⁶ cm/s,–
Cc1ccc(CC(=O)N[C@H](c2ccc(C)c(OCc3ccccc3)c2)[C@@H](C)C(=O)O)cc1,13 µM,74%,21 ×10⁻⁶ cm/s,–
Cc1ccc([C@@H](NC(=O)Cc2ccc(Cc3ccccn3)cc2)[C@@H](C)C(=O)O)cc1.Cl,0.36 µM,94%,5.7 ×10⁻⁶ cm/s,–
Cc1ccc([C@@H](NC(=O)[C@@H](F)c2ccc(Cl)cc2)[C@@H](C)C(=O)O)cc1OCC(C)(C)C#N,–,–,–,IC50 (Cytochrome P450 2D6): > 10 µM; IC50 [3]: > 30 µM; IC50 (Cytochrome P450 1A2): > 10 µM; IC50 (Cytochrome P450 2C9): 6.2 µM; IC50 (Cytochrome P450 2C8): > 10 µM; IC50 (Cytochrome P450 2C19): > 10 µM; IC50 (Cytochrome P450 3A4): > 10 µM
CCCOc1cc([C@@H](NC(=O)Cc2ccc(C)cc2)[C@@H](C)C(=O)O)ccc1C,9.6 µM,57%,18 ×10⁻⁶ cm/s,–
